Measurements from PubChem BioAssay (NCI).
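Five compound concentrations were applied to cells in 96-well plates for 48 hours; endpoints were derived by simple linear interpolation of the resulting dose-response curve. TGI marks complete inhibition of growth.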

Legend:
Assay in all cases: NCI anticancer screen, dose series, 48 h
786-0 renal = system: 786-0 renal
A549 NSCLC = system: A549 NSCLC
CAKI-1 renal = system: CAKI-1 renal
CCRF-CEM leukemia = system: CCRF-CEM leukemia
COLO 205 colon = system: COLO 205 colon
DLD-1 colon = system: DLD-1 colon
DMS 273 small cell lung = system: DMS 273 small cell lung
EKVX NSCLC = system: EKVX NSCLC
HCC-2998 colon = system: HCC-2998 colon
HCT-116 colon = system: HCT-116 colon
HCT-15 colon = system: HCT-15 colon
HL-60(TB) leukemia = system: HL-60(TB) leukemia
HOP-62 NSCLC = system: HOP-62 NSCLC
HOP-92 NSCLC = system: HOP-92 NSCLC
HT29 colon = system: HT29 colon
IGROV1 ovarian = system: IGROV1 ovarian
K-562 leukemia = system: K-562 leukemia
KM12 colon = system: KM12 colon
KM20L2 colon = system: KM20L2 colon
LOX IMVI melanoma = system: LOX IMVI melanoma
M14 melanoma = system: M14 melanoma
M19-MEL melanoma = system: M19-MEL melanoma
MALME-3M melanoma = system: MALME-3M melanoma
MOLT-4 leukemia = system: MOLT-4 leukemia
NCI-H226 lung = system: NCI-H226 lung
NCI-H23 lung = system: NCI-H23 lung
NCI-H460 lung = system: NCI-H460 lung
NCI-H522 lung = system: NCI-H522 lung
OVCAR-3 ovarian = system: OVCAR-3 ovarian
OVCAR-4 ovarian = system: OVCAR-4 ovarian
OVCAR-5 ovarian = system: OVCAR-5 ovarian
RPMI-8226 leukemia = system: RPMI-8226 leukemia
RXF 393 renal = system: RXF 393 renal
SF-268 CNS = system: SF-268 CNS
SF-295 CNS = system: SF-295 CNS
SF-539 CNS = system: SF-539 CNS
SK-MEL-2 melanoma = system: SK-MEL-2 melanoma
SK-MEL-28 melanoma = system: SK-MEL-28 melanoma
SK-MEL-5 melanoma = system: SK-MEL-5 melanoma
SK-OV-3 ovarian = system: SK-OV-3 ovarian
SNB-19 CNS = system: SNB-19 CNS
SNB-75 CNS = system: SNB-75 CNS
SNB-78 CNS = system: SNB-78 CNS
SR leukemia = system: SR leukemia
SW-620 colon = system: SW-620 colon
TK-10 renal = system: TK-10 renal
U251 CNS = system: U251 CNS
UACC-257 melanoma = system: UACC-257 melanoma
UACC-62 melanoma = system: UACC-62 melanoma
UO-31 renal = system: UO-31 renal
XF 498 CNS = system: XF 498 CNS
A498 renal = system: A498 renal
ACHN renal = system: ACHN renal
DMS 114 small cell lung = system: DMS 114 small cell lung
HOP-18 NSCLC = system: HOP-18 NSCLC
LXFL 529 NSCLC = system: LXFL 529 NSCLC
OVCAR-8 ovarian = system: OVCAR-8 ovarian
RXF-631 renal = system: RXF-631 renal
SN12C renal = system: SN12C renal

O=c1[nH][nH]c(=O)[nH]1
TGI (786-0 renal): > 100 µM
TGI (A549 NSCLC): > 100 µM
TGI (CAKI-1 renal): > 100 µM
TGI (CCRF-CEM leukemia): > 100 µM
TGI (COLO 205 colon): > 100 µM
TGI (DLD-1 colon): > 100 µM
TGI (DMS 273 small cell lung): > 100 µM
TGI (EKVX NSCLC): > 100 µM
TGI (HCC-2998 colon): > 100 µM
TGI (HCT-116 colon): > 100 µM
TGI (HCT-15 colon): > 100 µM
TGI (HL-60(TB) leukemia): > 100 µM
TGI (HOP-62 NSCLC): > 100 µM
TGI (HOP-92 NSCLC): > 100 µM
TGI (HT29 colon): > 100 µM
TGI (IGROV1 ovarian): > 100 µM
TGI (K-562 leukemia): > 100 µM
TGI (KM12 colon): > 100 µM
TGI (KM20L2 colon): > 100 µM
TGI (LOX IMVI melanoma): > 100 µM
TGI (M14 melanoma): > 100 µM
TGI (M19-MEL melanoma): > 100 µM
TGI (MALME-3M melanoma): > 100 µM
TGI (MOLT-4 leukemia): > 100 µM
TGI (NCI-H226 lung): > 100 µM
TGI (NCI-H23 lung): > 100 µM
TGI (NCI-H460 lung): > 100 µM
TGI (NCI-H522 lung): > 100 µM
TGI (OVCAR-3 ovarian): > 100 µM
TGI (OVCAR-4 ovarian): > 100 µM
TGI (OVCAR-5 ovarian): > 100 µM
TGI (RPMI-8226 leukemia): > 100 µM
TGI (RXF 393 renal): > 100 µM
TGI (SF-268 CNS): > 100 µM
TGI (SF-295 CNS): > 100 µM
TGI (SF-539 CNS): > 100 µM
TGI (SK-MEL-2 melanoma): > 100 µM
TGI (SK-MEL-28 melanoma): > 100 µM
TGI (SK-MEL-5 melanoma): > 100 µM
TGI (SK-OV-3 ovarian): > 100 µM
TGI (SNB-19 CNS): > 100 µM
TGI (SNB-75 CNS): > 100 µM
TGI (SNB-78 CNS): > 100 µM
TGI (SR leukemia): > 100 µM
TGI (SW-620 colon): > 100 µM
TGI (TK-10 renal): > 100 µM
TGI (U251 CNS): > 100 µM
TGI (UACC-257 melanoma): > 100 µM
TGI (UACC-62 melanoma): > 100 µM
TGI (UO-31 renal): > 100 µM
TGI (XF 498 CNS): > 100 µM

CC1(C)CCC[C@@]2(C)C1C[C@H](O)[C@@]1(C)O[C@@](C)([C@H](O)CO)CCC21 (stereo partly specified)
TGI (786-0 renal): > 100 µM
TGI (A498 renal): 77.1 µM
TGI (A549 NSCLC): > 100 µM
TGI (ACHN renal): 74.9 µM
TGI (CAKI-1 renal): > 100 µM
TGI (CCRF-CEM leukemia): > 100 µM
TGI (COLO 205 colon): 56.5 µM
TGI (DMS 114 small cell lung): 90.2 µM
TGI (DMS 273 small cell lung): > 100 µM
TGI (EKVX NSCLC): > 100 µM
TGI (HCC-2998 colon): > 100 µM
TGI (HCT-116 colon): > 100 µM
TGI (HCT-15 colon): > 100 µM
TGI (HL-60(TB) leukemia): 48.1 µM
TGI (HOP-18 NSCLC): > 100 µM
TGI (HOP-62 NSCLC): > 100 µM
TGI (HOP-92 NSCLC): 70.7 µM
TGI (HT29 colon): 86 µM
TGI (IGROV1 ovarian): 70.6 µM
TGI (K-562 leukemia): > 100 µM
TGI (KM12 colon): > 100 µM
TGI (KM20L2 colon): > 100 µM
TGI (LXFL 529 NSCLC): > 100 µM
TGI (M14 melanoma): > 100 µM
TGI (M19-MEL melanoma): > 100 µM
TGI (MALME-3M melanoma): > 100 µM
TGI (MOLT-4 leukemia): 62 µM
TGI (NCI-H226 lung): > 100 µM
TGI (NCI-H23 lung): > 100 µM
TGI (NCI-H460 lung): > 100 µM
TGI (NCI-H522 lung): 89.8 µM
TGI (OVCAR-3 ovarian): > 100 µM
TGI (OVCAR-4 ovarian): > 100 µM
TGI (OVCAR-5 ovarian): > 100 µM
TGI (OVCAR-8 ovarian): > 100 µM
TGI (RPMI-8226 leukemia): 45.2 µM
TGI (RXF-631 renal): > 100 µM
TGI (SF-268 CNS): > 100 µM
TGI (SF-295 CNS): > 100 µM
TGI (SF-539 CNS): > 100 µM
TGI (SK-MEL-2 melanoma): 60 µM
TGI (SK-MEL-28 melanoma): > 100 µM
TGI (SK-MEL-5 melanoma): 44 µM
TGI (SK-OV-3 ovarian): 79.4 µM
TGI (SN12C renal): > 100 µM
TGI (SNB-19 CNS): > 100 µM
TGI (SNB-75 CNS): 58.9 µM
TGI (SNB-78 CNS): > 100 µM
TGI (SW-620 colon): > 100 µM
TGI (TK-10 renal): > 100 µM
TGI (U251 CNS): > 100 µM
TGI (UACC-257 melanoma): > 100 µM
TGI (UACC-62 melanoma): 96.1 µM
TGI (UO-31 renal): 85.3 µM
TGI (XF 498 CNS): > 100 µM
